Reference: US10383948B2, “Anti-cMet antibody drug conjugates and methods for their use” (AbbVie Inc., priority 2016, dated 2019)

Columns and labels:
[1] = tested on: A549; assay: Cytotoxicity assay (CellTiter-Glo, 6 days); format: cell-based, human; settings: A549 lung cancer; relative to untreated control at ≤1 μg/mL in a six day proliferation
Procedure: (§1) Tumor cells were plated at 2000-5000 cells/well in 180 μL growth medium containing 10% FBS in 96-well plates, and cultured at 37° C. in a humidified incubator with 5% C02. The following day, titrations of antibodies or ADCs in 20 μL were added and cells were incubated for 6 days. Cell viability was determined using a CellTiter-Glo Luminescent Cell Viability Assay (Promega) according to the manufacturer's instructions. A non-binding, irrelevant negative control ADC conjugated to MMAE was also included in all assays to confirm that cell killing was antigen dependent.
(§2) Tumor cells were plated at 2000-5000 cells/well in 180 μL growth medium containing 10% FBS in 96-well plates, and cultured at 37° C. in a humidified incubator with 5% C02. The following day, titrations of ADCs in 20 μL were added and cells were incubated for 6 days. Cell viability was determined using a CellTiter-Glo Luminescent Cell Viability Assay (Promega) according to the manufacturer's instructions. A non-binding, irrelevant negative control ADC conjugated to MMAE was also included in all assays to confirm that cell killing was antigen-dependent.

[2] = tested on: NCI-H1650; assay: Cytotoxicity assay (CellTiter-Glo, 6 days); format: cell-based, human; settings: NCI-H1650 lung cancer; relative to untreated control at ≤1 μg/mL in a six day proliferation
Procedure: as §1, §2

[3] = tested on: Hs746T gastric cancer xenografts; assay: Hs746T xenograft efficacy
Procedure: Female SCID, SCID-Beige and nude mice were obtained from Charles River (Wilmington, Mass.) and housed at ten mice per cage. The body weight upon arrival was 20-22 g. Food and water were available ad libitum. Mice were acclimated to the animal facilities for a period of at least one week prior to commencement of experiments. Animals were tested in the light phase of a 12-hr light: 12-hr dark schedule (lights on at 06:00 hours).
Each experimental group included 8-10 animals.
Tumor volumes are depicted as mean±S.E.M.

[4] = tested on: CTG-0652 colorectal PDX; assay: Patient-derived xenograft, tumor growth delay; format: in vivo, NSG mice; settings: PDX CTG-0652 (Colorectal); every seven days, six doses; median time to 1 cm^3 vs control
Procedure: (§3) Tumor fragments of 3 to 5 mm^3 at passage 3 (P3) were implanted subcutaneously in the right rear flank of NSG mice (The Jackson Laboratory) with a trochar. ABBV-399 and ABT-700 PBD were administered every seven days for a total of six doses. […] For all groups, tumor volumes were plotted only for the duration that allowed the full set of animal to remain on study. If animals had to be taken off study, the remaining animals were monitored for tumor growth until they reached defined end-points.

[5] = tested on: CTG-0419 colorectal PDX; assay: Patient-derived xenograft, tumor growth delay; format: in vivo, NSG mice; settings: PDX CTG-0419 (Colorectal); every seven days, six doses; median time to 1 cm^3 vs control
Procedure: as §3

[6] = tested on: CTG-0358 colorectal PDX; assay: Patient-derived xenograft, tumor growth delay; format: in vivo, NSG mice; settings: PDX CTG-0358 (Colorectal); every seven days, six doses; median time to 1 cm^3 vs control
Procedure: as §3

[7] = tested on: CTG-0406 colorectal PDX; assay: Patient-derived xenograft, tumor growth delay; format: in vivo, NSG mice; settings: PDX CTG-0406 (Colorectal); every seven days, six doses; median time to 1 cm^3 vs control
Procedure: as §3

[8] = tested on: CTG-0117 colorectal PDX; assay: Patient-derived xenograft, tumor growth delay; format: in vivo, NSG mice; settings: PDX CTG-0117 (Colorectal); every seven days, six doses; median time to 1 cm^3 vs control
Procedure: as §3

[9] = tested on: CTG-0176 NSCL PDX; assay: Patient-derived xenograft, tumor growth delay; format: in vivo, NSG mice; settings: PDX CTG-0176 (NSCL); every seven days, six doses; median time to 1 cm^3 vs control
Procedure: as §3

[10] = tested on: CTG-0363 NSCL PDX; assay: Patient-derived xenograft, tumor growth delay; format: in vivo, NSG mice; settings: PDX CTG-0363 (NSCL); every seven days, six doses; median time to 1 cm^3 vs control
Procedure: as §3

[11] = tested on: CTG-0382 colorectal PDX; assay: Patient-derived xenograft, tumor growth delay; format: in vivo, NSG mice; settings: PDX CTG-0382 (Colorectal); every seven days, six doses; median time to 1 cm^3 vs control
Procedure: as §3

[12] = tested on: CTG-0796 colorectal PDX; assay: Patient-derived xenograft, tumor growth delay; format: in vivo, NSG mice; settings: PDX CTG-0796 (Colorectal); every seven days, six doses; median time to 1 cm^3 vs control
Procedure: as §3

[13] = tested on: CTG-0167 NSCL PDX; assay: Patient-derived xenograft, tumor growth delay; format: in vivo, NSG mice; settings: PDX CTG-0167 (NSCL); every seven days, six doses; median time to 1 cm^3 vs control
Procedure: as §3

[14] = tested on: CTG-0115 colorectal PDX; assay: Patient-derived xenograft, tumor growth delay; format: in vivo, NSG mice; settings: PDX CTG-0115 (Colorectal); every seven days, six doses; median time to 1 cm^3 vs control
Procedure: as §3

[15] = tested on: CTG-0178 NSCL PDX; assay: Patient-derived xenograft, tumor growth delay; format: in vivo, NSG mice; settings: PDX CTG-0178 (NSCL); every seven days, six doses; median time to 1 cm^3 vs control
Procedure: as §3

[16] = tested on: CTG-0058 colorectal PDX; assay: Patient-derived xenograft, tumor growth delay; format: in vivo, NSG mice; settings: PDX CTG-0058 (Colorectal); every seven days, six doses; median time to 1 cm^3 vs control
Procedure: as §3

[17] = tested on: MCF-7; assay: Cytotoxicity assay (CellTiter-Glo, 6 days); format: cell-based, human; settings: MCF-7 breast cancer; relative to untreated control at ≤1 μg/mL in a six day proliferation
Procedure: as §1

[18] = tested on: HT-29; assay: Cytotoxicity assay (CellTiter-Glo, 6 days); format: cell-based, human; settings: HT-29 colorectal cancer
Procedure: as §1

[19] = tested on: IM-95; assay: Cytotoxicity assay (CellTiter-Glo, 6 days); format: cell-based, human; settings: IM-95 gastric cancer
Procedure: as §1

[20] = tested on: SNU-5; assay: Cytotoxicity assay (CellTiter-Glo, 6 days); format: cell-based, human
Procedure: as §1

[21] = tested on: MDA-MB-231; assay: Cytotoxicity assay (CellTiter-Glo, 6 days); format: cell-based, human; settings: MDA-MB-231 breast cancer; relative to untreated control at ≤1 μg/mL in a six day proliferation
Procedure: as §1

[22] = tested on: SNU-620; assay: Cytotoxicity assay (CellTiter-Glo, 6 days); format: cell-based, human; settings: SNU-620 gastric cancer
Procedure: as §1

[23] = relative to untreated control at ≤1 μg/mL in a six day proliferation
[24] = read-out: ABBV-399 IC50, cell proliferation assay, Table 7B

Substance: ABBV-399: ADC comprised of the cMet targeting antibody ABT-700 conjugated to MMAE through a valine citrulline (vc) linker
- Maximal Killing [1]: 22%
- Maximal Killing [2]: 13%
- in vivo activity, comparison ([3]; ABT-700 every seven days, ABBV-399 every four days, dose-dependent, FIG. 11A): more active than ABT-700 alone
- tumor response ([3]; tumors relapsed after ABT-700 treatment, FIG. 12A): regression
- TGD (%) tumor growth delay [4]: 350%
- TGD (%) tumor growth delay [5]: 54%
- TGD (%) tumor growth delay [6]: 94%
- TGD (%) tumor growth delay [7]: 0%
- TGD (%) tumor growth delay [8]: 0%
- TGD (%) tumor growth delay [9]: 71%
- TGD (%) tumor growth delay [10]: 0%
- TGD (%) tumor growth delay [11]: 126%
- TGD (%) tumor growth delay [12]: 78%
- TGD (%) tumor growth delay [13]: 0%
- TGD (%) tumor growth delay [14]: 114%
- TGD (%) tumor growth delay [15]: 0%
- TGD (%) tumor growth delay [16]: 71%
- Maximal Killing [17]: 0%
- Maximal Killing [18, 23]: 70%
- IC50 [18, 24]: 9000 pM
- Maximal Killing [19, 23]: 53%
- IC50 [19, 24]: 1700 pM
- inhibition of proliferation ([20]; MET-amplified SNU-5 gastric cancer cells, FIG. 4): inhibited proliferation
- Maximal Killing ([20]; SNU-5 gastric cancer, relative to untreated control at ≤1 μg/mL in a six day proliferation): 85%
- IC50 ([20]; read-out: ABBV-399 IC50, SNU-5 gastric cancer, cell proliferation assay, Table 7B): 280 pM
- Maximal Killing [21]: 0%
- Maximal Killing [22, 23]: 80%
- IC50 [22, 24]: 170 pM
